Assay: mn = molality of the nth substance listed, in mol/kg
Conditions: 101.3 kPa, Liquid; for speed of sound: Sing-around technique in a fixed-path interferometer; for mass density: Vibrating tube method

COC(=O)CC(=O)[O-].[K+] [potassium 3-methoxy-3-oxopropanoate] + O
Conditions | mass density [kg/m3] | speed of sound [m/s]
288.15 K, m1 = 0.0128 | 1000.03 | 1468.1
288.15 K, m1 = 0.0148 | 1000.18 | 1468.3
288.15 K, m1 = 0.0189 | 1000.47 | 1468.8
288.15 K, m1 = 0.0253 | 1000.94 | 1469.6
288.15 K, m1 = 0.0316 | 1001.39 | 1470.3
288.15 K, m1 = 0.0444 | 1002.3 | 1471.8
288.15 K, m1 = 0.0512 | 1002.81 | 1472.4
288.15 K, m1 = 0.0637 | 1003.7 | 1474
288.15 K, m1 = 0.0836 | 1005.11 | 1476
288.15 K, m1 = 0.1286 | 1008.32 | 1481.1
288.15 K, m1 = 0.1868 | 1012.39 | 1487.4
288.15 K, m1 = 0.2644 | 1017.68 | 1495.4
288.15 K, m1 = 0.3285 | 1022.02 | 1502.2
288.15 K, m1 = 0.3591 | 1024 | 1505
293.15 K, m1 = 0.0128 | 999.122 | 1484
293.15 K, m1 = 0.0148 | 999.272 | 1484.2
293.15 K, m1 = 0.0189 | 999.553 | 1484.7
293.15 K, m1 = 0.0253 | 1000.02 | 1485.4
293.15 K, m1 = 0.0316 | 1000.47 | 1486.1
293.15 K, m1 = 0.0444 | 1001.37 | 1487.4
293.15 K, m1 = 0.0512 | 1001.87 | 1488.2
293.15 K, m1 = 0.0637 | 1002.74 | 1489.5
293.15 K, m1 = 0.0836 | 1004.14 | 1491.5
293.15 K, m1 = 0.1286 | 1007.31 | 1496.2
293.15 K, m1 = 0.1868 | 1011.34 | 1502
293.15 K, m1 = 0.2644 | 1016.57 | 1509.6
293.15 K, m1 = 0.3285 | 1020.84 | 1516.1
293.15 K, m1 = 0.3591 | 1022.81 | 1518.6
298.15 K, m1 = 0.0128 | 997.951 | 1498.1
298.15 K, m1 = 0.0148 | 998.099 | 1498.4
298.15 K, m1 = 0.0189 | 998.377 | 1498.8
298.15 K, m1 = 0.0253 | 998.84 | 1499.4
298.15 K, m1 = 0.0316 | 999.281 | 1500.1
298.15 K, m1 = 0.0444 | 1000.17 | 1501.3
298.15 K, m1 = 0.0512 | 1000.67 | 1502
298.15 K, m1 = 0.0637 | 1001.53 | 1503.3
298.15 K, m1 = 0.0836 | 1002.91 | 1505.1
298.15 K, m1 = 0.1286 | 1006.05 | 1509.5
298.15 K, m1 = 0.1868 | 1010.04 | 1514.9
298.15 K, m1 = 0.2644 | 1015.21 | 1522.1
298.15 K, m1 = 0.3285 | 1019.45 | 1528
298.15 K, m1 = 0.3591 | 1021.39 | 1530.5
303.15 K, m1 = 0.0128 | 996.543 | 1510.4
303.15 K, m1 = 0.0148 | 996.691 | 1510.6
303.15 K, m1 = 0.0189 | 996.967 | 1511
303.15 K, m1 = 0.0253 | 997.423 | 1511.6
303.15 K, m1 = 0.0316 | 997.862 | 1512.2
303.15 K, m1 = 0.0444 | 998.743 | 1513.3
303.15 K, m1 = 0.0512 | 999.236 | 1514
303.15 K, m1 = 0.0637 | 1000.1 | 1515.2
303.15 K, m1 = 0.0836 | 1001.46 | 1517
303.15 K, m1 = 0.1286 | 1004.57 | 1521.1
303.15 K, m1 = 0.1868 | 1008.52 | 1526.2
303.15 K, m1 = 0.2644 | 1013.64 | 1532.9
303.15 K, m1 = 0.3285 | 1017.84 | 1538.5
303.15 K, m1 = 0.3591 | 1019.76 | 1540.8
308.15 K, m1 = 0.0128 | 994.92 | 1520.9
308.15 K, m1 = 0.0148 | 995.066 | 1521.2
308.15 K, m1 = 0.0189 | 995.341 | 1521.5
308.15 K, m1 = 0.0253 | 995.793 | 1522.1
308.15 K, m1 = 0.0316 | 996.226 | 1522.7
308.15 K, m1 = 0.0444 | 997.101 | 1523.7
308.15 K, m1 = 0.0512 | 997.589 | 1524.4
308.15 K, m1 = 0.0637 | 998.449 | 1525.5
308.15 K, m1 = 0.0836 | 999.794 | 1527.1
308.15 K, m1 = 0.1286 | 1002.88 | 1531
308.15 K, m1 = 0.1868 | 1006.79 | 1535.8
308.15 K, m1 = 0.2644 | 1011.88 | 1542.1
308.15 K, m1 = 0.3285 | 1016.04 | 1547.4
308.15 K, m1 = 0.3591 | 1017.95 | 1549.5
313.15 K, m1 = 0.0128 | 993.096 | 1530
313.15 K, m1 = 0.0148 | 993.243 | 1530.2
313.15 K, m1 = 0.0189 | 993.515 | 1530.5
313.15 K, m1 = 0.0253 | 993.962 | 1531.1
313.15 K, m1 = 0.0316 | 994.391 | 1531.6
313.15 K, m1 = 0.0444 | 995.26 | 1532.6
313.15 K, m1 = 0.0512 | 995.745 | 1533.2
313.15 K, m1 = 0.0637 | 996.599 | 1534.3
313.15 K, m1 = 0.0836 | 997.933 | 1535.8
313.15 K, m1 = 0.1286 | 1001 | 1539.5
313.15 K, m1 = 0.1868 | 1004.88 | 1543.9
313.15 K, m1 = 0.2644 | 1009.93 | 1549.9
313.15 K, m1 = 0.3285 | 1014.06 | 1554.9
313.15 K, m1 = 0.3591 | 1015.96 | 1556.8

Source: the NIST ThermoML archive (doi:10.1016/j.jct.2011.11.014)
